Patent US11406631B2, “Hydrazone derivatives for preventing or treating EBV-related cancers” (Universite de Bretagne Occidentale, priority 2018, dated 2022)

How the values were obtained:
[1] = system: GAr-based inhibition of translation; assay: Yeast assay (assays described in Lista et al.); assay type: cell-based, Saccharomyces cerevisiae
Description: A yeast-based (Saccharomyces cerevisiae) assay that recapitulates all the aspects of the GAr-based inhibition of translation, including the GAr-length dependency, has been developed, that allowed understanding the mechanisms of GAr-mediated mRNA translation—suppression in cis, as well as the cellular factors involved (Lista et al. Biotechnol J 2015, 10, 1670-1681). This assay was successfully used to identify small molecular weight compounds that can stimulate EBNA1 expression both in yeast and mammalian cells and that relieve GAr-based limitation of antigen presentation (Voisset et al. Dis Model Mech 2014, 7, 435-444).
Compounds 1a, 2a, 4a, 5a, 7a, 10a and 11a were also tested in the various assay described in Lista et al. (Nat Commun 2017, 8, 16043).

G4-RNA EBNA1 = assay: HT-G4-FID assay: Thiazole Orange displacement from G4-RNA; assay type: binding, Epstein-Barr virus; settings: for DC50: K+-100 buffer, pH 7.3, triplicate assays; for affinity for the G-quadruplex structure of EBNA1 (in words, FID data): conclusion from Table 1
Method: This assay is based on the displacement of a fluorescent indicator (Thiazole Orange, hereinafter TO) from a G4-RNA structure (RNA G-quadruplex of EBNA1) by a putative ligand such as the compounds of the invention (see FIG. 1). This displacement is quantified as % TO displacement. The percentage of TO displacement is calculated from the fluorescence intensity (F) in the presence of a putative ligand, using:
[formula] where F0 is fluorescence intensity of the probe (TO) bound to RNA without added ligand. The percentage of displacement is then plotted as a function of the concentration of added ligand. The RNA affinity of putative ligands is evaluated using the concentration of a ligand required to decrease the fluorescence of the probe by 50% (noted DC50), which is determined graphically from non-linear fitting of the displacement curve. […] 2. Materials and Reagents
Thiazole Orange (TO) and cacodylic acid were purchased from Aldrich and used without further purification. The oligoribonucleotide EBNA1 [5′-r(GGGGCAGGAGCAGGAGGA)-3′] (SEQ ID no 1) purified by reversed-phase HPLC was purchased from Eurogentec.
Stock solutions of the ligands (2 mM in DMSO (dimethylsulfoxyde)) were used for G4-FID assay, unless otherwise stated, and were stored at −20° C. Stock solutions of TO (2 mM in DMSO) were used for G4-FID assay. Fluorescent probe powders and solutions were stored and used, protected from light and used as aliquots to avoid freeze-thaw cycles. HT-G4-FID measurements were performed on a FLUOstar Omega microplate reader (BMG Labtech) with 96-well Non-Binding Surface black with black bottom polystyrene microplates (Corning ref 3650).
For HT-G4-FID assay, the oligonucleotide was dissolved in K^+−100-buffer (10 mM lithium cacodylate, pH 7.3, 100 mM KCl, 1 mM EDTA, 1% DMSO). Oligonucleotide concentrations were determined on the basis of their absorbance at 260 nm. Prior to use, the oligonucleotide was pre-treated by heating at 95° C. for 5 min followed by a slow cooling to 25° C.
Each G4-FID assay is performed in a 96-well microplates. […] The microplate is filled with (a) K^+−100 solution (qs for 200 μL) (b) 10 μL of a solution of pre-folded oligonucleotides (5 μM) and TO (10 μM-2 eq) and (c) an extemporaneously prepared 5 μM ligand solution in K^+−100 buffer (0 to 100 μL along the line of the microplate, i.e., from column […]: 0, 0.125, 0.25, 0.375, 0.5, 0.625, 0.75, 1.0, 1.25, 1.5, 2.0 and 2.5 μM) (see Largy et al., Anal Bioanal Chem 2011, 400, 34193427). After 5 min of orbital shaking at 500 rpm, fluorescence intensity is measured using the following experimental parameters: positioning delay: 0.5 s, 20 flashes per well, emission/excitation filters (nm): 485/520, gain adjusted at 80% of the fluorescence from the most fluorescent well (i.e., a well from column A).
Results are shown in Table 1 below (lower DC50 values indicate higher affinity of compounds to the G4-RNA structure of EBNA1).

[2] = system: GAr-based inhibition of protein expression; assay: SDS-PAGE and western blot of 235GAr-OVA and OVA in transfected H1299 cells; assay type: cell-based
Description: The aim of these experiments is to assess the effect of the inventive compounds on the GAr-based inhibition of protein expression. For this purpose, H1299 cells were transfected by plasmids allowing expression of either EBNA1 or, as a control EBNA1ΔGAr and then treated, or not by various concentrations of the indicated compounds. […] Compounds able to interfere with GAr-based inhibition of translation will increase the steady state level of EBNA1, whereas a having no effect on EBNA1ΔGAr.
The ratio of the quantity of OVA or GAr-OVA relatively to GAPDH (the loading control) are indicated below the gel.

Row | Compound | result in the yeast assay [1] | DC50 (G4-RNA EBNA1) [nM] | affinity for the G-quadruplex structure of EBNA1 (in words, FID data) (G4-RNA EBNA1) | OVA expression ([2]; control without GAr) | steady-state level of 235GAr-OVA ([2]; dose-dependent, relative to GAPDH)
1 | C[n+]1ccc(C=NNC(=O)c2ccc3ccc4ccc(C(=O)NN=Cc5cc[n+](C)c6ccccc56)nc4c3n2)c2ccccc21.[I-].[I-] [Compound 11a, N′^2,N′^9-Bis[(1-methylquinolinium-4-yl)methylene]-1,10-phenanthroline-2,9-dicarbohydrazide iodide] | positive results | 300 ± 30 | particularly high affinity |  | 
2 | C[n+]1ccc(C=NNC(=O)c2cccc(C(=O)NN=Cc3cc[n+](C)c4ccccc34)n2)c2ccccc21.[I-].[I-] [Compound 2a, N′^2, N′^6-Bis[(1-methylquinolinium-4-yl)methylene]pyridine-2,6-dicarbohydrazide iodide] | positive results | 260 ± 50 | particularly high affinity | no significant effect | significant increase
